Format in all cases: cell-based
One experiment deals with RS4;11-BCL-2 D103E cells. Nature of the experiment: Cell proliferation assay (MTS), RS4;11-BCL-2 D103E engineered cells. To be noted: Homo sapiens, 72 h, read-out: RS4, 11 BCL2-D103E IC50. From the text:
MTS testing kit was purchased from Promega (Madison, WI, USA). The RPMI-1640, Fetal bovine serum and Penicillin-Streptomycin were purchased from BI (Biological Industries, Beit Haemek, Israel). Puromycin was purchased from Beyotime (shanghai, China). Dimethyl sulfoxide (DMSO) was purchased from Sigma (St. Louis., MO, USA). RS4;11-BCL-2 G101V (Cobioer Lot. #: CBD2021063013P4), RS4;11-BCL-2 D103E (Cobioer Lot. #: CBD2021063013P4), RS4;11-BCL-2 D103Y (Cobioer Lot. #: CBD2022012101P4) and RS4;11-BCL-2 F104L (Cobioer Lot. #: CBD2021063014P4) cells were cultured in RPMI1640 supplemented with 1 ug/mL puromycin, 100 U/mL Penicillin-Streptomycin and 10% FBS.
To investigate whether a compound is able to inhibit the activity of BCL-2 mutation in cells, a mechanism-based assay using engineered cell lines stably overexpressing BCL-2 mutation (RS4;11-BCL-2 G101V, RS4;11-BCL-2 D103E, RS4;11-BCL-2 D103Y, and RS4;11-BCL-2 F104L) was developed. In this assay, the inhibition of BCL-2 mutation was reflected by the inhibition of cell proliferation of engineered RS4;11 cells. Cells were plated into 96-well plates at optimized cell density (RS4;11-BCL-2 G101V: 5000 cells/well; RS4;11-BCL-2 D103E: 7500 cells/well; RS4;11-BCL-2 D103Y: 7500 cells/well; RS4;11-BCL-2 F104L: 5000 cells/well). Plates were incubated at 37° C., with 5% CO2 for 4 h (RS4;11-BCL-2 G101V, RS4;11-BCL-2 F104L) and 24 h (RS4;11-BCL-2 D103E, RS4;11-BCL-2 D103Y), respectively. Compounds were serially diluted and added to the plates with the final concentrations of 10000, 3333.3, 1111.1, 370.4, 123.5, 41.2, 13.7, 4.6 and 1.5 nM. Plates were incubated at 37° C., with 5% CO2 for 120 h (RS4; 11-BCL-2 G101V, RS4; 11-BCL-2 F104L) and 72 h (RS4;11-BCL-2 D103E, RS4;11-BCL-2 D103Y), respectively. 20 μl MTS was added into each well and the plates were incubated at 37° C., with 5% CO2 exactly for 2 h. The absorbance was measured by a microplate reader at 490 nm. IC50 values were calculated using GraphPad Prism 8.0 software.

The next experiment relates to Toledo cells. Nature of the experiment: Cell proliferation assay (MTS), Toledo cells. To be noted: Homo sapiens, 72 h. An outline of the steps:
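Toledo cells (RPMI-1640, 10% FBS) seeded at 30000 cells/well, rested 4 h, then exposed 72 h at 37 °C, 5% CO2 to compound at nine final concentrations, 1.5–10000 nM. Viability by MTS (2 h), absorbance at 490 nm. IC50 from the concentration-response.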

For the next experiment, the system named is RS4;11-BCL-2 G101V cells. The experiment is described as follows: Cell proliferation assay (MTS), RS4;11-BCL-2 G101V engineered cells. To be noted: Homo sapiens, 120 h, read-out: RS4, 11 BCL2-G101V IC50. An outline of the steps:
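Inhibition of mutant BCL-2 is inferred from reduced proliferation of RS4;11 cells stably overexpressing the mutant. Compounds are tested at 1.5–10000 nM for 120 h (G101V, F104L) or 72 h (D103E, D103Y), with MTS absorbance at 490 nm used to derive IC50.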

For `COc1nc2[nH]cc(F)c2cc1Oc1cc(N2CCC3(CC2)CC(N2CCN(C4CCC(O)CC4)C[C@H]2c2ccccc2C(C)C)C3)ccc1C(=O)NS(=O)(=O)c1cnc(NC[C@H]2CC[C@](C)(O)CC2)c([N+](=O)[O-])c1` (single isomer, unassigned) [Example 331], the half-maximal inhibitory concentration (IC50) in the experiment on RS4;11-BCL-2 D103E cells amounted to 1 nM.
For `COc1nc2[nH]cc(F)c2cc1Oc1cc(N2CCC3(CC2)CC(N2CCN(Cc4ccnc(C(C)(F)F)c4)C[C@H]2c2ccccc2C(C)C)C3)ccc1C(=O)NS(=O)(=O)c1cnc(NC[C@H]2CC[C@](C)(O)CC2)c([N+](=O)[O-])c1` [Example 149, 4-(2-((R)-4-((2-(1,1-difluoroethyl)pyridin-4-yl)methyl)-2-(2-isopropylphenyl)piperazin-1-yl)-7-azaspiro[3.5]nonan-7-yl)-2-((3-fluoro-6-methoxy-1H-pyrrolo[2,3-b]pyridin-5-yl)oxy)-N-((6-((((1r,4r)-4-hydroy-4-methylcyclohexyl)methyl)amino)-5-nitropyridin-3-yl)sulfonyl)benzamide], in the experiment on RS4;11-BCL-2 D103E cells, the half-inhibitory concentration (IC50) is 1 nM.
In the case of `[2H]C([2H])([2H])Oc1cc(CN2CCN(C3CC4(CCN(c5ccc(C(=O)NS(=O)(=O)c6cnc(NC[C@H]7CC[C@](C)(O)CC7)c([N+](=O)[O-])c6)c(Oc6cc7c(F)c[nH]c7nc6OC)c5)CC4)C3)[C@H](c3ccccc3C(C)C)C2)ccn1` [Example 164, 2-((3-fluoro-6-methoxy-1H-pyrrolo[2,3-b]pyridin-5-yl)oxy)-N-((6-((((1r,4r)-4-hydroxy-4-methylcyclohexyl)methyl)amino)-5-nitropyridin-3-yl)sulfonyl)-4-(2-((R)-2-(2-isopropylphenyl)-4-((2-(methoxy-d3)pyridin-4-yl)methyl)piperazin-1-yl)-7-azaspiro[3.5]nonan-7-yl)benzamide], the IC50 with RS4;11-BCL-2 D103E cells amounted to 1 nM.
`COc1nccc(CN2CCN(C3CC4(CCN(c5ccc(C(=O)NS(=O)(=O)c6cnc(NC[C@H]7CC[C@](C)(O)CC7)c([N+](=O)[O-])c6)c(Oc6cc7c(F)c[nH]c7nc6OC)c5)CC4)C3)[C@H](c3ccccc3C(C)C)C2)n1` [Example 165, 2-((3-fluoro-6-methoxy-1H-pyrrolo[2,3-b]pyridin-5-yl)oxy)-N-((6-((((1r,4r)-4-hydroxy-4-methylcyclohexyl)methyl)amino)-5-nitropyridin-3-yl)sulfonyl)-4-(2-((R)-2-(2-isopropylphenyl)-4-((2-methoxypyrimidin-4-yl)methyl)piperazin-1-yl)-7-azaspiro[3.5]nonan-7-yl)benzamide]: in the experiment with RS4;11-BCL-2 D103E cells, the IC50 amounted to 1 nM.
`COc1nc2[nH]cc(F)c2cc1Oc1cc(N2CCC3(CC2)CC(N2CCN(Cc4ccnc5c4OCO5)C[C@H]2c2ccccc2C(C)C)C3)ccc1C(=O)NS(=O)(=O)c1cnc(NC[C@H]2CC[C@](C)(O)CC2)c([N+](=O)[O-])c1` [Example 189, 4-(2-((R)-4-([1,3]dioxolo[4,5-b]pyridin-7-ylmethyl)-2-(2-isopropylphenyl)piperazin-1-yl)-7-azaspiro[3.5]nonan-7-yl)-2-((3-fluoro-6-methoxy-1H-pyrrolo[2,3-b]pyridin-5-yl)oxy)-N-((6-((((1r,4r)-4-hydroxy-4-methylcyclohexyl)methyl)amino)-5-nitropyridin-3-yl)sulfonyl)benzamide]: the IC50 in the experiment with RS4;11-BCL-2 D103E cells was 1 nM.
The same measure, in the same setting: with `COc1nc2[nH]cc(F)c2cc1Oc1cc(N2CCC3(CC2)CC(N2CCN(Cc4ccnc5c4OCCO5)C[C@H]2c2ccccc2C(C)C)C3)ccc1C(=O)NS(=O)(=O)c1cnc(NC[C@H]2CC[C@](C)(O)CC2)c([N+](=O)[O-])c1` [Example 191, 4-(2-((R)-4-((2,3-dihydro-[1,4]dioxino[2,3-b]pyridin-8-yl)methyl)-2-(2-isopropylphenyl)piperazin-1-yl)-7-azaspiro[3.5]nonan-7-yl)-2-((3-fluoro-6-methoxy-1H-pyrrolo[2,3-b]pyridin-5-yl)oxy)-N-((6-((((1r,4r)-4-hydroxy-4-methylcyclohexyl)methyl)amino)-5-nitropyridin-3-yl)sulfonyl)benzamide] the figure was 1 nM.
Consider `CCOc1nc2[nH]cc(F)c2cc1Oc1cc(N2CCC3(CC2)CC(N2CCN(Cc4ccnc(OC)c4)C[C@H]2c2ccccc2C(C)C)C3)ccc1C(=O)NS(=O)(=O)c1cnc(NC[C@H]2CC[C@](C)(O)CC2)c([N+](=O)[O-])c1` [Example 241, 2-((6-ethoxy-3-fluoro-1H-pyrrolo[2,3-b]pyridin-5-yl)oxy)-N-((6-((((1r,4r)-4-hydroxy-4-methylcyclohexyl)methyl)amino)-5-nitropyridin-3-yl)sulfonyl)-4-(2-((R)-2-(2-isopropylphenyl)-4-((2-methoxypyridin-4-yl)methyl)piperazin-1-yl)-7-azaspiro[3.5]nonan-7-yl)benzamide], for which the 50% inhibitory concentration (IC50) in the experiment with Toledo cells and with RS4;11-BCL-2 G101V cells was 1 nM in each case.
Consider `COc1nc2[nH]cc(F)c2cc1Oc1cc(N2CCC3(CC2)CC(N2CCN(Cc4ccc5c(c4)CCO5)C[C@H]2c2ccccc2C(C)C)C3)ccc1C(=O)NS(=O)(=O)c1cnc(NC[C@H]2CC[C@](C)(O)CC2)c([N+](=O)[O-])c1` [Example 323, 4-(2-((R)-4-((2,3-dihydrobenzofuran-5-yl)methyl)-2-(2-isopropylphenyl)piperazin-1-yl)-7-azaspiro[3.5]nonan-7-yl)-2-((3-fluoro-6-methoxy-1H-pyrrolo[2,3-b]pyridin-5-yl)oxy)-N-((6-((((1r,4r)-4-hydroxy-4-methylcyclohexyl)methyl)amino)-5-nitropyridin-3-yl)sulfonyl)benzamide], for which the concentration for half-maximal inhibition (IC50) in the experiment with Toledo cells and with RS4;11-BCL-2 G101V cells was 1 nM throughout.
On to `CC(C)c1ccccc1[C@@H]1CN(C[C@@H]2COCCO2)CCN1C1CC2(CCN(c3ccc(C(=O)NS(=O)(=O)c4cnc(NC[C@H]5CC[C@](C)(O)CC5)c([N+](=O)[O-])c4)c(Oc4cnc5[nH]cc(F)c5c4)c3)CC2)C1` [Example 335, 4-(2-((R)-4-(((R)-1,4-dioxan-2-yl)methyl)-2-(2-isopropylphenyl)piperazin-1-yl)-7-azaspiro[3.5]nonan-7-yl)-2-((3-fluoro-1H-pyrrolo[2,3-b]pyridin-5-yl)oxy)-N-((6-((((1r,4r)-4-hydroxy-4-methylcyclohexyl)methyl)amino)-5-nitropyridin-3-yl)sulfonyl)benzamide], for which the IC50 with Toledo cells and in the experiment on RS4;11-BCL-2 G101V cells was 1 nM each time.
Take `COc1nc2[nH]cc(F)c2cc1Oc1cc(N2CCC3(CC2)CC(N2CCN(Cc4cc5c(cn4)OCCO5)C[C@H]2c2ccccc2C(C)C)C3)ccc1C(=O)NS(=O)(=O)c1cnc(NC[C@H]2CC[C@](C)(O)CC2)c([N+](=O)[O-])c1` [Example 338, 4-(2-((R)-4-((2,3-dihydro-[1,4]dioxino[2,3-c]pyridin-7-yl)methyl)-2-(2-isopropylphenyl)piperazin-1-yl)-7-azaspiro[3.5]nonan-7-yl)-2-((3-fluoro-6-methoxy-1H-pyrrolo[2,3-b]pyridin-5-yl)oxy)-N-((6-((((1r,4r)-4-hydroxy-4-methylcyclohexyl)methyl)amino)-5-nitropyridin-3-yl)sulfonyl)benzamide]: the half-inhibitory concentration (IC50) with Toledo cells and in the experiment with RS4;11-BCL-2 G101V cells was 1 nM each time.
For `CC(C)c1ccccc1[C@@H]1CN(Cc2cc3c(cn2)OCCO3)CCN1C1CC2(CCN(c3ccc(C(=O)NS(=O)(=O)c4cnc(NC[C@H]5CC[C@](C)(O)CC5)c([N+](=O)[O-])c4)c(Oc4cnc5[nH]cc(F)c5c4)c3)CC2)C1` [Example 341, 4-(2-((R)-4-((2,3-dihydro-[1,4]dioxino[2,3-c]pyridin-7-yl)methyl)-2-(2-isopropylphenyl)piperazin-1-yl)-7-azaspiro[3.5]nonan-7-yl)-2-((3-fluoro-1H-pyrrolo[2,3-b]pyridin-5-yl)oxy)-N-((6-((((1r,4r)-4-hydroxy-4-methylcyclohexyl)methyl)amino)-5-nitropyridin-3-yl)sulfonyl)benzamide], the IC50 in the experiment on Toledo cells and in the experiment on RS4;11-BCL-2 G101V cells was 1 nM each time.

The values above are taken from US20250122191A1, “COMPOUNDS AS BCL-2 INHIBITORS” (Fochon Biosciences, Ltd, priority 2021, published 2025).
